# Read-outs that look alike come from different tables or passages of the source.
# Columns and labels:
# Experiment in all cases: Growth assay (Cell Titer Glo)
# Type in all cases: cell-based
# 786-0 = conditions: Homo sapiens; 786-0, renal
# Procedure: (§1) All human tumor cell lines were obtained from ATCC and grown under standard cell culture conditions at 37° C. in a humidified atmosphere with 5% CO2. Cells were grown in RPMI 1640 supplemented with 5% fetal bovine serum 2 mM glutamine, 100 units/ml penicillin, 100 units/ml streptomycin, and 0.25 μg/ml amphotericin. Cells were harvested at 70 to 90% confluence with trypsin/EDTA and used immediately Cell count and viability was determined by Trypan blue staining followed by hemocytometry. Only cultures displaying >95% cell viability were used for experiments. HMEC were grown according to the specifications from the supplier (Lonzo).
# (§2) Tissue culture microtiter 96-well plates were seeded with cells at a density of 5,000 cells/well. The plates were incubated for 18-24 hours prior to any treatment. All test compounds were solubilized in 100% DMSO and diluted with media to obtain a final DMSO concentration of 0.1%. Cell viability was measured 72 hours after treatment by the Cell Titer Glo Assay (Promega), which is a luminescent assay that is an indicator of live cells as a function of metabolic activity and ATP content. The assay was performed according to manufacturer's specifications. Luminescence was measured by a Perkin Elmer Victor® multi-label plate reader.^6
# (§3) Dose response curves were analyzed using Prism™ 4 software (GraphPad) to calculate IC50 values using a four parameter logistic equation.
# ACHN = conditions: Homo sapiens, renal
# Procedure: as §1, §2, §3
# CCFR-CEM = conditions: Homo sapiens, hematopoietic
# Procedure: as §1, §2, §3
# DU-145 = conditions: Homo sapiens; DU-145, prostate
# Procedure: as §1, §2, §3
# EKVX = conditions: Homo sapiens, lung
# Procedure: as §1, §2, §3
# HCT-116 = conditions: Homo sapiens; HCT-116, colon
# Procedure: as §1, §2, §3
# HL-60(TB) = conditions: Homo sapiens, hematopoietic
# Procedure: as §1, §2, §3
# HOP-62 = conditions: Homo sapiens; HOP-62, lung
# Procedure: as §1, §2, §3
# IGROVI = conditions: Homo sapiens; IGROVI / IGROV-1, ovarian
# Procedure: as §1, §2, §3
# KM12 = conditions: Homo sapiens; KM12, colon
# Procedure: as §1, §2, §3
# LOX IMVI = conditions: Homo sapiens; LOX IMVI / LOX IMV1, melanoma
# Procedure: as §1, §2, §3
# M14 = conditions: Homo sapiens; M14, melanoma
# Procedure: as §1, §2, §3
# MALME-3M = conditions: Homo sapiens, melanoma
# Procedure: as §1, §2, §3
# MCF-7 = conditions: Homo sapiens, MCF7; MCF-7, breast
# Procedure: as §1, §2, §3
# MOLT-4 = conditions: Homo sapiens; MOLT-4, hematopoietic
# Procedure: as §1, §2, §3
# NCI-ADR-RES = conditions: Homo sapiens, multi-drug resistant
# Procedure: as §1, §2, §3
# NCI-H23 = conditions: Homo sapiens; NCI-H23, lung
# Procedure: as §1, §2, §3
# NCI-H322M = conditions: Homo sapiens, lung
# Procedure: as §1, §2, §3
# NCI-H460 = conditions: Homo sapiens; NCI-H460, lung
# Procedure: as §1, §2, §3
# OVCAR-4 = conditions: Homo sapiens; OVCAR-4, ovarian
# Procedure: as §1, §2, §3
# OVCAR-5 = conditions: Homo sapiens; OVCAR-5, ovarian
# Procedure: as §1, §2, §3
# RPMI-8226 = conditions: Homo sapiens; RPMI-8226, hematopoietic
# Procedure: as §1, §2, §3
# RXF-393 = conditions: Homo sapiens; RXF-393, renal
# Procedure: as §1, §2, §3
# SF-268 = conditions: Homo sapiens; SF-268, CNS
# Procedure: as §1, §2, §3
# SF-539 = conditions: Homo sapiens; SF-539, CNS
# Procedure: as §1, §2, §3
# SK-MEL-28 = conditions: Homo sapiens
# Procedure: as §1, §2, §3
# SKOV-3 = conditions: Homo sapiens; SKOV-3 / SK-OV-3, ovarian
# Procedure: as §1, §2, §3
# SN12C = conditions: Homo sapiens, renal
# Procedure: as §1, §2, §3
# SNB-19 = conditions: Homo sapiens; SNB-19, CNS
# Procedure: as §1, §2, §3
# SNB-75 = conditions: Homo sapiens; SNB-75, CNS
# Procedure: as §1, §2, §3
# SW-620 = conditions: Homo sapiens; SW-620, colon
# Procedure: as §1, §2, §3
# T-47D = conditions: Homo sapiens, T47D, breast
# Procedure: as §1, §2, §3
# TK-10 = conditions: Homo sapiens; TK-10, renal
# Procedure: as §1, §2, §3
# U251 = conditions: Homo sapiens, U-251; U251, CNS
# Procedure: as §1, §2, §3
# UACC-257 = conditions: Homo sapiens; UACC-257, melanoma
# Procedure: as §1, §2, §3
# UACC-62 = conditions: Homo sapiens; UACC-62, melanoma
# Procedure: as §1, §2, §3
# UO-31 = conditions: Homo sapiens; UO-31, renal
# Procedure: as §1, §2, §3
# [1] = system: human MDA-MB-231 breast tumor cells; conditions: Homo sapiens
# Procedure: as §1, §2, §3
smiles,measurement,setting,value
"COC(=O)[C@H]1Cc2c([nH]c3ccccc23)[C@H](c2cc(OC)ccc2OC)N1C(=O)CCl [Compound 2f, Methyl (1S,3R)-1-(2,5-dimethoxyphenyl)-2-(2-chloroacetyl)-2,3,4,9-tetrahydro-1H-β-carboline-3-carboxylate]",IC50,786-0,0.032 µM
same,IC50,ACHN,0.0013 µM
same,IC50,CCFR-CEM,< 0.006 µM
same,IC50,DU-145,0.232 µM
same,IC50,EKVX,0.014 µM
same,IC50,HCT-116,> 10 µM
same,IC50,HL-60(TB),0.017 µM
same,IC50,HOP-62,0.02 µM
same,IC50,IGROVI,0.01 µM
same,IC50,KM12,1.37 µM
same,IC50,LOX IMVI,0.004 µM
same,IC50,M14,0.485 µM
same,IC50,MALME-3M,0.132 µM
same,IC50,MCF-7,3.75 µM
same,IC50,MOLT-4,0.161 µM
same,IC50,NCI-ADR-RES,0.023 µM
same,IC50,NCI-H23,0.013 µM
same,IC50,NCI-H322M,2.46 µM
same,IC50,NCI-H460,> 10 µM
same,IC50,OVCAR-4,0.015 µM
same,IC50,OVCAR-5,1 µM
same,IC50,RPMI-8226,0.017 µM
same,IC50,RXF-393,0.003 µM
same,IC50,SF-268,0.69 µM
same,IC50,SF-539,0.034 µM
same,IC50,SK-MEL-28,0.485 µM
same,IC50,SKOV-3,0.06 µM
same,IC50,SN12C,0.375 µM
same,IC50,SNB-19,0.131 µM
same,IC50,SNB-75,0.063 µM
same,IC50,SW-620,3.31 µM
same,IC50,T-47D,0.973 µM
same,IC50,TK-10,0.078 µM
same,IC50,U251,0.259 µM
same,IC50,UACC-257,5.32 µM
same,IC50,UACC-62,0.119 µM
same,IC50,UO-31,< 0.009 µM
same,IC50,"[1]; MDA-MB-231, 72 h, MDA-MB-231 breast, 72 h, Tables 3-5, read-out: IC50 value, μM, growth",0.006 µM
"COC(=O)[C@H]1Cc2c([nH]c3ccccc23)[C@H](c2ccc(Cl)cc2Cl)N1C(=O)CCl [Compound 2j, (1S,3R) Methyl 1-(2,4-dichlorophenyl)-2-(2-chloroacetyl)-2,3,4,9-tetrahydro-1H-β-carboline-3-carboxylate]",IC50,786-0,0.02 µM
same,IC50,ACHN,0.01 µM
same,IC50,CCFR-CEM,0.01 µM
same,IC50,DU-145,> 3 µM
same,IC50,EKVX,0.02 µM
same,IC50,HCT-116,> 3 µM
same,IC50,HL-60(TB),0.04 µM
same,IC50,HOP-62,0.2 µM
same,IC50,IGROVI,0.02 µM
same,IC50,KM12,0.63 µM
same,IC50,LOX IMVI,< 0.001 µM
same,IC50,M14,2.26 µM
same,IC50,MALME-3M,> 3 µM
same,IC50,MCF-7,> 3 µM
same,IC50,MOLT-4,0.13 µM
same,IC50,NCI-ADR-RES,0.02 µM
same,IC50,NCI-H23,> 3 µM
same,IC50,NCI-H322M,> 3 µM
same,IC50,NCI-H460,< 0.001 µM
same,IC50,OVCAR-4,0.05 µM
same,IC50,OVCAR-5,0.49 µM
same,IC50,RPMI-8226,0.08 µM
same,IC50,RXF-393,0.015 µM
same,IC50,SF-268,0.1 µM
same,IC50,SF-539,0.16 µM
same,IC50,SK-MEL-28,1.04 µM
same,IC50,SKOV-3,0.32 µM
same,IC50,SN12C,> 3 µM
same,IC50,SNB-19,1.04 µM
same,IC50,SNB-75,0.1 µM
same,IC50,SW-620,2.75 µM
same,IC50,T-47D,0.12 µM
same,IC50,TK-10,0.2 µM
same,IC50,U251,1.88 µM
same,IC50,UACC-257,> 3 µM
same,IC50,UACC-62,0.29 µM
same,IC50,UO-31,0.005 µM
same,inhibition at 10 µM,"[1]; MDA-MB-231, MDA-MB-231, 10 μM, mean +/− spread",98%
same,IC50,"[1]; MDA-MB-231, MDA-MB-231, Tables 1 and 2, read-out: Growth Inhibition IC50, μM (95% CI)",0.07 µM
